The source of these data is PMC8949241, “Design, Synthesis and Biological Evaluation of Neogliptin, a Novel 2-Azabicyclo[2.2.1]heptane-Based Inhibitor of Dipeptidyl Peptidase-4 (DPP-4)” (Pharmaceuticals, 2022).

Bounds are passed on as bounds.

In the assay the target is T1, recombinant DPP-4 enzyme D4943 (Homo sapiens, UniProt P27487).
T1 construct: purchased Sigma-Aldrich D4943
The assay can be described thus: DPP-4 enzyme inhibition, chromogenic substrate Gly-Pro-pNA, absorbance at 405 nm. It counts as biochemical. The settings on record: 37 °C for 30 min, pH 7.6, dilution range 10^−4 to 10^−11 M. How it is done: The DDP-4 enzyme inhibitory activities of the synthesised compounds were assessed using protocols similar to those described in the literature. For IC50 values determination, inhibitory assays were carried out using recombinant DPP-4 enzyme D4943, chromogenic substrate Gly-Pro-pNA and buffer system (50 mM Tris-HCl, 50 mM NaCl, 0.01% Triton, pH = 7.6). After short incubation (37 °C for 30 min), the absorbance at 405 nm was measured. The procedure was initially optimised using reference compounds. Each inhibitor was analysed in the dilution range from 10^−4 to 10^−11 M. Certified samples of commercial drugs-inhibitors of DPP-4 (vilda-, sita-, alo- and linagliptin) with known IC50 were used as reference compounds. […] We analysed every compound in the dilution range […] (Table 3).
For the inhibitory assays, we used the substrate Gly-Pro-p-nitroanilide (H-Gly-Pro-pNA HCl, G0513) and recombinant dipeptidyl peptidase-4 enzyme (D4943) that were purchased from Sigma-Aldrich (St. Louis, MO, USA). […] The mixtures were incubated at 37 °C for 30 min, and the absorbance at 405 nm was measured using the microplate reader ChemWell (Awareness Technology Inc., Palm City, FL, USA). DPP-4 inhibitory activities for each test compound were calculated. […]

T1 sequence (P27487 whole entry): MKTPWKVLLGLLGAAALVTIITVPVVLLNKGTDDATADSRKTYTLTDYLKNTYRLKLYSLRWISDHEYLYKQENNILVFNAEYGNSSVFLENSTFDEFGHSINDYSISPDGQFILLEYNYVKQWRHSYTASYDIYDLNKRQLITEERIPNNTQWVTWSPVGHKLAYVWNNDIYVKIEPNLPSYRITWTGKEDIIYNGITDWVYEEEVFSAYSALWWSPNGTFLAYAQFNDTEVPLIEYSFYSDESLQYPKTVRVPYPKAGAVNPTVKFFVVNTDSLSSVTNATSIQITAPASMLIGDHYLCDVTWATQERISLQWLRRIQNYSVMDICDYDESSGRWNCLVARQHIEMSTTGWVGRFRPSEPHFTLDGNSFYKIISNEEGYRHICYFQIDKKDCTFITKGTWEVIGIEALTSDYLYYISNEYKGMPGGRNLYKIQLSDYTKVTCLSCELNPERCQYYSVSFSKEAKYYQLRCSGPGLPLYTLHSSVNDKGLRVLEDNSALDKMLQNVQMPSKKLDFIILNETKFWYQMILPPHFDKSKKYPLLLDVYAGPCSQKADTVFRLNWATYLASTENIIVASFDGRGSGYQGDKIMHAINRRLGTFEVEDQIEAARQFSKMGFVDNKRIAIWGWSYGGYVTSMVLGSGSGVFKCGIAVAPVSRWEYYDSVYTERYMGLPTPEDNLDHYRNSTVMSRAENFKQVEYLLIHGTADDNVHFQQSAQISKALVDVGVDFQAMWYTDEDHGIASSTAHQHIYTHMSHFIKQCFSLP

As to “( 3R,S)-2-[(3R)-3-Amino-4-(2,4,5-trifluorophenyl)butanoyl]-endo-2-azabicyclo[2.2.1]hepnane-3-carbonitrile p-toluenesulpfonate [12c (S-endo): 12d (R-endo), 1:1 mixture]”, the half-maximal inhibitory concentration (IC50) was above 1000 nM.
